Reference: US20040132821A1, “Therapeutic combination of carnitine and antioxidant polyphenols” (priority 2002, published 2004)
Where two headings read alike, the source gives them in different places.

How the values were obtained:
[1] = tested on: rats; assay: Toxicological test, parenteral administration, rats; type: in vivo
Text: (§1) Both carnitines and hydroxytyrosol are well known for their low toxicity and good tolerability. These favorable toxicological characteristics of carnitines and hydroxytyrosol have been confirmed.

[2] = tested on: mice; assay: Toxicological test, parenteral administration, mice; type: in vivo
Text: as §1

[3] = humans, after ingestion; cited from earlier work
[4] = after consumption of a meal, hydroxytyrosol in olive oil; cited from earlier work
[5] = cited from earlier work

For CC(=O)O[C@H](CC(=O)[O-])C[N+](C)(C)C [acetyl-L-carnitine, Acetyl-L-carnitine], the “amount possible to administer parenterally” value [1] was “up to 250 mg/kg” and the “amount possible to administer parenterally” value [2] was “up to 250 mg/kg”.

In the case of OCCc1ccc(O)c(O)c1 [hydroxytyrosol, Hydroxytyrosol], the “preferential route of excretion” value [3] is listed as “glucuronide conjugates in urine”, the “time of peak postprandial concentration” value [4] is listed as 1 to 2 h and the oral bioavailability ([5]; aqueous solution) is listed as 71%. The oral bioavailability ([5]; olive oil solution) was 99%.
